Laboratory results taken from patent US20140031787A1, “FEEDBACK-BASED DIURETIC OR NATRIURETIC MOLECULE ADMINISTRATION” (Medtronic, Inc., priority 2012, published 2014).

Columns and labels:
[1] = system: male dog; assay: NICOM study: cardiac data in anesthetized, mechanically ventilated dog; type: in vivo; conditions: phenylephrine followed by SNP; for cardiac output (CO): dobutamine incremental infusion doses, esmolol after dobutamine
Method: In one embodiment, the monitor comprises two electrodes (2601, 2602) which carry out two roles simultaneously. The first role is to deliver a continuous low-voltage alternating electrical current. The second role is to sample at a very fast rate the signal emanating from a patient. The signals are then analyzed to determine stroke volume (SV), heart rate (HR), cardiac output (CO), stroke volume variation (SVV) and other hemodynamic information. In one embodiment, the two electrodes 2601 and 2602 are placed on the surface of the chest of a human being 2604 to collect cardiac data. Although a human being 2604 is depicted, one of ordinary skill will understand that any mammal can be the subject. Further, one of ordinary skill in the art will appreciate that the two electrodes 2601 and 2602 may be placed on different locations of the body of the subject to obtain data.
A noninvasive cardiac output monitoring (NICOM) monitor was utilized to measure cardiac data from an anesthetized, mechanically ventilated, 54 lb, 42 inch (nose to base of tail) male dog. FIGS. 23-27 depict the cardiac data measured by the NICOM monitor.
The gap in data at 11:20 indicates electrocautery interference when the chest of the dog was opened. FIG. 24 depicts the data in response to sequential fluid boluses. An approximate 20% increase in CO was detected reflecting changes in both SV and HR. […] FIG. 26 depicts the cardiodepressant effect of the ultra-short beta-blocker esmolol given after dobutamine and recalibration. […] FIG. 27 depicts the response to increasing blood pressure with phenylephrine followed by decreasing blood pressure with sodium nitroprusside (SNP). Prior to this intervention, the dog chest had been opened and commercially available flow monitors had been implanted on the pulmonary artery (PA). Baseline PA flow data, which was measured by the implantable monitors, was 2.7 L/min. The PA flow data measured by the NICOM monitor was 2.812 L/min.

[2] = system: Dahl/SS rats; assay: Pharmacodynamic study of VD by SQ infusion in Dahl/SS rats on 4% salt diet; conditions: for blood pressure compared with 4% vehicle control group at week 3: week 3, p-value<0.05
Method: The pharmacodynamic effects of VD were investigated in a rat model. Forty male Dahl/SS rats were shipped to the animal facilities at PhysioGenix, Inc. (Milwaukee, Wis.). The rats were maintained on a low-salt diet and allowed to acclimate. After acclimation, animals had baseline parameters collected while on the low-salt diet. Baseline tail-cuff blood pressures and echocardiograms were measured. Baseline urine was collected for analysis of protein and albumin. Animals were then randomly assigned to one of 4 groups (10 animals per group):
1. Vehicle Control; low-salt diet, n=10 2. Vehicle Control; 4% salt diet, n=10 3. Vessel dilator, 100 ng/kg/min, 4% salt diet, n=10 4. Vessel dilator, 300 ng/kg/min, 4% salt diet, n=10
The vehicle control groups were infused with a citrate-mannitol-saline buffer (0.66 mg/mL citric acid, 6.43 mg/mL sodium citrate, 40 mg/mL mannitol, 9 mg/mL NaCl). The animals were on a Teklad 7034 (low-salt) diet or Dyets AIN-76A 4% salt diet, as indicated, throughout a 6 week course of the study and had free access to water.
Alzet® minipumps (Durect, Corp.) were surgically implanted on Days 1, 15, and 29 of the study to maintain continuous vehicle or drug dispensing at the desired dose for a total period of 6 weeks. Urine was collected at baseline, 2, 4 and 6 weeks after the initiation of the treatment to assess proteinuria and albuminuria. After six weeks of treatment, the animals were then euthanized.

[3] = system: canine model high-rate paced (HRP); assay: Pharmacodynamic study of VD by subcutaneous infusion in high-rate paced canine heart failure model
Source text: The pharmacodynamic effects of VD delivered by subcutaneous infusion were investigated in a canine model high-rate paced (HRP) to a heart rate of 240 bpm (ventricular pacing) over a period of 10 days to simulate HF. The canines were divided into a control group and an experimental group. The control group received a continuous subcutaneous infusion of the Tris buffer without VD over the course of the 10 day period. The experimental group received continuous subcutaneous infusion of VD dissolved in Tris buffer at a dosing rate of 100 ng/kg·min based upon the body weight of individual canines.
Seven days prior to the beginning of HRP (Day −7), all dogs were instrumented for ventricular pacing with an IPG (implantable pulse generator) including an RA (right atrium) and RV (right ventricle) lead, and a DSI (Digital Sciences International) device in the femoral artery for arterial blood pressure monitoring. Glomerular filtration rate (GFR) was measured by iohexol clearance on the day before the beginning of HRP (Day −1). On Day 0, high-rate pacing was initiated at a rate of 240 BPM (beats per minute) and maintained continuously over the course of a 10 day period (Days 0-10). After HRP was started on Day 0, urine, blood, and hemodynamic data was collected from conscious animals to serve as a baseline.
On Days 0-10, in combination with pacing, each animal received continuous subcutaneous (SQ) infusion of an agent (Tris buffer solution for control animals and vessel dilator in Tris buffer for experimental animals) delivered via external catheter and pump. SQ infusion was performed using Medtronic MiniMed® 407C pumps equipped with 3.0 mL reservoirs (#MMT-103A) and Medtronic Silhouette® combo infusion sets (#MMT373). GFR measurements were repeated on Day 9. On Day 10 (with HRP On), a pre-term monitor was performed for urine and hemodynamic data collection on conscious animals. Once the data was collected, HRP was turned off and the animals were euthanized.

## CC(CCc1ccc(O)cc1)NCCc1ccc(O)c(O)c1 (stereo not drawn) [dobutamine]
[1]; NICOM monitor
  cardiac output (CO): marked increase

## COC(=O)CCc1ccc(OCC(O)CNC(C)C)cc1 (stereo not drawn) [esmolol]
[1]; NICOM monitor
  cardiac output (CO): marked decline

## CNC[C@H](O)c1cccc(O)c1 [phenylephrine]
[1]; NICOM monitor
  cardiac output (CO): reduced
  heart rate (HR): reflex slowing
[1]
  blood pressure: elevated

## vessel dilator (EVVPPQVLSEPNEEAGAALSPLPEVPPWTGEVSPAQR; Vessel dilator; UniProt P01160 56-92, looked up) [VD]
[2]; high-dose VD 300 ng/kg/min SQ infusion
  average blood pressure compared with vehicle control group on 4% salt diet: attenuated blood pressure
[2]; high-dose VD 300 ng/kg/min
  blood pressure compared with 4% vehicle control group at week 3: statistically significant decrease
  decrease in blood pressure compared with 4% vehicle control group at week 5: not as statistically significant
[2]; low-dose VD 100 ng/kg/min SQ infusion
  average blood pressure compared with vehicle control group on 4% salt diet: attenuated blood pressure
[2]; low-dose VD 100 ng/kg/min
  blood pressure compared with 4% vehicle control group at week 3: statistically significant decrease
  decrease in blood pressure compared with 4% vehicle control group at week 5: not as statistically significant
[3]; VD 100 ng/kg·min SQ infusion, two-way repeated measures ANOVA
  difference in pulmonary capillary wedge pressure between control and experimental group on Day 10: does not appear to be statistically significant
[3]; VD 100 ng/kg·min continuous SQ infusion
  extent of increase in pulmonary capillary wedge pressure Day 0 to Day 10 compared with control group: smaller than that observed in the control group
[3]; VD 100 ng/kg·min continuous SQ infusion, Day 10, p-value<0.05
  increase in right atrial pressure compared with control group: significantly less than for the control group
[3]; VD 100 ng/kg·min continuous SQ infusion, HRP 240 bpm for 10 days
  mean right atrial pressure, change from Day 0 to Day 10: increased slightly
